In patent publication US5945406A, “Therapeutic compounds with pyrimidine base” (Oxford Glycosciences (UK) Ltd., priority 1995, dated 1999):

What was measured:
[1] = tested on: human HepG2 flank tumours; test: Efficacy in vivo: antitumour activity against subcutaneous human HepG2 flank tumours in nude mice (Example 20); design: species or system human tumour in nude mice; conditions: for Average tumour size (at sacrifice): control 10.4; for Average tumour size (at sacrifice) / Number of mice surviving after tumour innoculation, day 17 / Number of mice surviving after tumour innoculation, day 25 / Number of mice surviving after tumour innoculation, day 30 / toxic side effects to the animals / appearance of treated animals / rate of disease progression in treated animals / survival time of treated mice over untreated animals: 1300 mg/kg; for Number of mice surviving after tumour innoculation, day 0: day 0 after tumour inoculation; for Number of mice surviving after tumour innoculation, day 17: day 17 after tumour inoculation; for Number of mice surviving after tumour innoculation, day 25: day 25 after tumour inoculation; for Number of mice surviving after tumour innoculation, day 30: day 30 after tumour inoculation
Experimental: Nude mice were inoculated with subcutaneous human HepG2 flank tumours to determine the antitumour activity of Compound 1 in vivo. After allowing the tumours to develop for the first seven days, we attempted to prevent tumour progression by seven ip treatments every 48 hours at doses of 1300 mg/kg.

[2] = tested on: nude mice; conditions: mouse, in vivo, ip
Experimental: The toxicity of Compound 1 (as described in Example 1) relative to 5-FU was determined in nude mice. Clinical grade 5-FU was used to provide a point of comparison with other toxicity studies in the literature. Animals were injected six times ip, in groups of 5, every 48 hours, with various doses of 5-FU or Compound 1.

[3] = tested on: nude mice; conditions: single bolus toxicity; NCI data base; cited from earlier work
[4] = seven ip treatments every 48 hours

With “1-(β-L-2-Arabinopyranosyl)-5-fluorouracil and 1-(α-L-2-Arabinopyranosyl)-5-fluorouracil [Compound 6]” the “Average tumour size (at sacrifice)” value [1, 4] was 6.2, the “Number of mice surviving after tumour innoculation, day 0” value (from here on “Number of mice surviving … day 0”) [1] was 5 mice and the “Number of mice surviving after tumour innoculation, day 17” value (shortened to “Number of mice surviving … day 17”) [1, 4] was 4 mice. The “Number of mice surviving after tumour innoculation, day 25” value (“Number of mice surviving … day 25” for short) [1, 4] was 2 mice, the “Number of mice surviving after tumour innoculation, day 30” value (“Number of mice surviving … day 30” below) [1, 4] was 2 mice and the “toxic side effects to the animals” value ([1]; in vivo, ip) was “without causing any toxic side effects”. The “appearance of treated animals” value [1, 4] was “very healthy appearance”, the “rate of disease progression in treated animals” value (shortened to “rate of disease progression”) [1, 4] was “significantly slowed the rate by which the disease progressed” and the “survival time of treated mice over untreated animals” value [1, 4] was “increased survival time”.

With “1-β-D-Galactopyranosyl-5-fluorouracil and 1-α-D-Galactopyranosyl-5-fluorouracil [Compound 1]” the “Average tumour size (at sacrifice)” value [1, 4] was 9.4, the “Number of mice surviving … day 0” value [1] was 5 mice and the “Number of mice surviving … day 17” value [1, 4] was 3 mice. The “Number of mice surviving … day 25” value [1, 4] was 2 mice, the “Number of mice surviving … day 30” value [1, 4] was 1 mice and the “appearance of treated animals” value ([1]; in vivo, ip) was “very healthy appearance”. The “toxic side effects to the animals” value ([1]; in vivo, ip) was “without causing any toxic side effects”, the “rate of disease progression” value [1, 4] was “significantly slowed the rate by which the disease progressed” and the “survival time of treated mice over untreated animals” value [1, 4] was “increased survival time”. For the same compound, the “MAD (maximal achievable dose)” value [2] was 1300 mg/kg.

With “1-β-L-Galactopyranosyl-5-fluorouracil and 1 -α-L-Galactopyranosyl-5-fluorouracil [Compound 2]” the “Average tumour size (at sacrifice)” value [1, 4] was 5.6, the “Number of mice surviving … day 0” value [1] was 5 mice and the “Number of mice surviving … day 17” value [1, 4] was 5 mice. For the same compound, the “Number of mice surviving … day 25” value [1, 4] was 3 mice, the “Number of mice surviving … day 30” value [1, 4] was 2 mice and the “appearance of treated animals” value ([1]; in vivo, ip) was “very healthy appearance”. For the same compound, the “toxic side effects to the animals” value ([1]; in vivo, ip) was “without causing any toxic side effects”, the “rate of disease progression” value [1, 4] was “significantly slowed the rate by which the disease progressed” and the “survival time of treated mice over untreated animals” value [1, 4] was “increased survival time”.

For `O=c1[nH]cc(F)c(=O)[nH]1` [Compound 5-FU, 5-Fluorouracil, reference compound], the LD10 [3] is given as 165 mg/kg, the LD50 [3] is given as 360 mg/kg and the “Average tumour size (at sacrifice)” value [1, 4] is given as 10.2. For the same compound, the “Number of mice surviving … day 0” value [1] was 5 mice, the “Number of mice surviving … day 17” value [1, 4] was 3 mice and the “Number of mice surviving … day 25” value [1, 4] was 2 mice. For the same compound, the “Number of mice surviving … day 30” value [1, 4] was 0 mice.

For `CC(=O)N[C@@H]1[C@@H](O)[C@@H](O)[C@@H](CO)O[C@H]1n1cc(F)c(=O)[nH]c1=O` [Compound 10, 1-(β-D-2-Deoxy-2-N-acetylgalactopyranosyl)-5-fluorouracil], the “Average tumour size (at sacrifice)” value [1, 4] was 9, the “Number of mice surviving … day 0” value [1] was 5 mice and the “Number of mice surviving … day 17” value [1, 4] was 3 mice. The “Number of mice surviving … day 25” value [1, 4] was 2 mice, the “Number of mice surviving … day 30” value [1, 4] was 1 mice and the “appearance of treated animals” value [1, 4] was “very healthy appearance”. The “rate of disease progression” value [1, 4] was “significantly slowed the rate by which the disease progressed”, the “survival time of treated mice over untreated animals” value [1, 4] was “increased survival time” and the “toxic side effects to the animals” value [1, 4] was “without causing any toxic side effects”.
